Measured values taken from PMC6753678, “Fueling Open Innovation for Malaria Transmission-Blocking Drugs: Hundreds of Molecules Targeting Early Parasite Mosquito Stages” (Frontiers in Microbiology, 2019).
Read-outs that look alike come from different tables or passages of the source.

Columns and labels:
[1] = test system: 3D7-strain P. falciparum asexual parasites; test: P. falciparum asexual growth inhibition assay (Pf GIA); type: cell-based, Plasmodium falciparum; conditions: dose response confirmation; read-out: Pf asexual growth inhibition assays IC50
Method: The asexual activity of active compounds was tested in dose response with parasite lactate dehydrogenase (LDH) activity used as a readout of parasite viability as described in [Gamo et al. (2010)]. Briefly, 3D7-strain P. falciparum asexual parasites were diluted to 0.25% parasitemia, 2% hematocrit in culture medium composed of RPMI medium with 25 mM HEPES, 2% D-sucrose, 0.3% L-glutamine, 150 μM hypoxanthine plus 5% albumax. 25 μl of parasite inoculum was then dispensed into each well of a 384 well plate containing test compounds and positive (50 μM chloroquine) and negative (DMSO) controls. Plates were incubated for 72 h at 37°C in a 5% CO2, 5%O2, 90% N2 environment before being frozen at −70°C. Plates were then thawed and 70 μl of reaction mix (143 mM sodium L-lactate, 143 mM 3-acetyl pyridine adenine dinucleotide, […] Nitro Blue tetrazolium chloride, […] diaphorase (2.83 U/ml), 0.7% Tween 20, 100 mM Tris–HCl pH 8.0) was added to each well using a Multidrop Combi automated dispenser. Plates were shaken to mix and then absorbance at 650 nm was measured after 10 min incubation at room temperature. Percent inhibition of asexual growth was then calculated with respect to positive and negative controls. Data presented is the mean of three independent biological replicates.

HepG2 cells = test: HepG2 cytotoxicity assay; conditions: for Pb ODA (this manuscript) HepG2 cytoxicity: HepG2 cytotoxicity listed with the Pb ODA data set (this manuscript); for IC50: read-out: HepG2 cytotoxicity assay IC50, dose response confirmation; for Unified cytotox: unified HepG2 value across the three screens
Method: Briefly, HepG2 cells were seeded onto compound-treated 384 well plates at a density of 2,500 cells per well in Minimal Essential Medium (MEM) plus 10% fetal bovine serum and 1% non-essential amino acids solution (NEAA). Cells were incubated with test compounds or 50 μM doxorubicin (positive) and DSMO (negative) controls at 37°C for 48 h in a humidified 5% CO2 atmosphere. […] Cell viability was then measured in a fluorescent plate reader and percent inhibition calculated with respect to positive and negative controls.

[2] = test system: P. berghei ookinete development; conditions: for % inhibition, Replicate A / % inhibition, Replicate B: primary screen at 1 μM
[3] = read-out: Pb ODA (this manuscript) IC50, P. berghei ookinete development assay, this manuscript
[4] = read-out: Pb Ookinete development assay IC50, dose response confirmation
[5] = read-out: Pb ODA IC50, this manuscript

| Structure (SMILES) | IC50 [1] [nM] | Pb ODA (this manuscript) HepG2 cytoxicity (HepG2 cells) [µM] | IC50 (HepG2 cells) [nM] | Is compound selective in assay? Pb ODA active? [2] | % inhibition, Replicate A [2] [%] | % inhibition, Replicate B [2] [%] | IC50 [2, 3] [nM] | IC50 [2, 4] [nM] | Unified cytotox (HepG2 cells) [µM] | Is compound selective in assay? Pb ODA active? ([2]; 1: YES, 0: NO) | IC50 [2, 5] [nM] |
| --- | --- | --- | --- | --- | --- | --- | --- | --- | --- | --- | --- |
| Cc1ccc2nc(/N=C(\N)NC(=O)NC3CCCCC3)nc(C)c2c1 [TCMDC-124557] | 4680 | 57.54 | 57500 | 1 (key: 1: YES; 0: NO) | 85.28 | 75.31 | 1750 | 1750 |  |  |  |
| COc1cccc(C=Cc2nc(=O)c3ccccc3o2)c1OC [TCMDC-124577] | 146 | 100.00 | 100000 | 1 (key: 1: YES; 0: NO) | 107.06 | 83.20 | 50 | 49 |  |  |  |
| c1ccc(CCNc2ncnc3c2[nH]c2ccccc23)cc1 [TCMDC-124578] | 270 |  | 10600 |  | 104.22 | 87.03 |  | 368 | 10.59 | 1 (1: YES) | 370 |
| O=C(c1cc(-c2ccco2)[nH]n1)N1CCN(S(=O)(=O)c2ccc(Cl)cc2)CC1 [TCMDC-124698] | 563 | 100.00 | 100000 | 1 (key: 1: YES; 0: NO) | 67.42 | 51.92 | 1120 | 1120 |  |  |  |
| O=C(c1cc(-c2ccco2)[nH]n1)N1CCN(S(=O)(=O)c2ccc(Br)cc2)CC1 [TCMDC-124699] | 178 | 100.00 | 100000 | 1 (key: 1: YES; 0: NO) | 66.14 | 59.38 |  | 1020 |  |  |  |
| O=C(c1cc(-c2cccs2)[nH]n1)N1CCN(S(=O)(=O)c2ccc(Cl)cc2)CC1 [TCMDC-124702] | 27 | 42.17 | 42200 | 0 (key: 1: YES; 0: NO) | 58.15 | 68.92 | 4340 | 4340 |  |  |  |
| CCn1c(CN2CCC(C)CC2)nc2cc(NC(=O)c3cccs3)ccc21 [TCMDC-124730] | 182 |  | 75900 |  | 78.95 | 101.97 |  | 350 | 75.86 | 1 (1: YES) |  |
| COc1cc(OC)c(NC(=O)C2c3ccccc3C(=O)N(CC(C)C)C2c2cccs2)cc1Cl (stereo not shown) [TCMDC-124760] | 108 |  | 100000 |  | 44.76 | 67.88 |  | 8610 | 100.00 | 1 (1: YES) | 8610 |
| COc1cccc(CC(=O)N2CCC(n3c(C)nc4ccc(F)cc43)CC2)c1 [TCMDC-124792] | 208 |  | 100000 |  | 59.80 | 82.85 |  | 794 | 100.00 | 1 (1: YES) | 790 |
| Cl.O=C(NC1CCN(CC2(c3ccc(Cl)cc3)CCCCC2)CC1)c1cc[nH]n1 [TCMDC-124828] | 66 | 35.89 | 35900 | 1 (key: 1: YES; 0: NO) | 40.92 | 76.27 | 1620 | 1620 |  |  |  |
| Cc1cc(C(=O)NC2CCN(CC3(c4ccccc4)CCCCC3)CC2)on1 [TCMDC-124832] | < 0.2 |  | 13500 |  | 102.69 | 91.64 |  | 613 | 13.49 | 1 (1: YES) | 610 |
| COc1coc(C(=O)NC2CCN(CC3(c4ccc(Cl)cc4)CCC3)CC2)c1OC [TCMDC-124835] | 107 |  | 52500 |  | 73.94 | 84.15 |  | 899 | 52.48 | 1 (1: YES) | 900 |
